In ChEMBL document CHEMBL4052695, “Introduction of fluorine to phenyl group of 4-(2-pyrimidinylamino)benzamides leading to a series of potent hedgehog signaling pathway inhibitors” (Bioorg Med Chem Lett, 2017):

How the values were obtained:
[1] = Inhibition of hedgehog signaling pathway in mouse NIH/3T3 cells carrying stably transfected Gli-reporter construct by luciferase reporter assay; format: cell-based; details: NIH3T3
[2] = species on record: Mus musculus; experiment: Potency index, ratio of IC50 for Vismodegib to IC50 for test compound for inhibition of hedgehog signaling pathway in mouse NIH/3T3 cells carrying stably transfected Gli-reporter construct by luciferase reporter assay; format: cell-based
[3] = Half life in Sprague-Dawley rat at 1 mg/kg, iv formulated using 5% DMA + 5% Tween-80 measured during 2 mins to 24 hrs post dose by LC/MS/MS method; format: ADME, organism-based; details: in vivo
[4] = Half life in Sprague-Dawley rat at 5 mg/kg, po formulated using 5% DMA + 5% Tween-80 measured during 2 mins to 24 hrs post dose by LC/MS/MS method; format: ADME, organism-based; details: in vivo
[5] = Half life in Sprague-Dawley rat at 5 mg/kg, po formulated using 0.5% HPMC + 0.3% Tween-80 (pH = 2.8) measured during 2 mins to 24 hrs post dose by LC/MS/MS method; format: ADME, organism-based; details: in vivo
[6] = Cmax in Sprague-Dawley rat at 1 mg/kg, iv formulated using 5% DMA + 5% Tween-80 measured during 2 mins to 24 hrs post dose by LC/MS/MS method; format: ADME, organism-based; design: dose 1 mg/kg, route intravenous; details: in vivo
[7] = Cmax in Sprague-Dawley rat at 5 mg/kg, po formulated using 5% DMA + 5% Tween-80 measured during 2 mins to 24 hrs post dose by LC/MS/MS method; format: ADME, organism-based; design: dose 5 mg/kg, route oral; details: in vivo
[8] = Cmax in Sprague-Dawley rat at 5 mg/kg, po formulated using 0.5% HPMC + 0.3% Tween-80 (pH = 2.8) measured during 2 mins to 24 hrs post dose by LC/MS/MS method; format: ADME, organism-based; design: dose 5 mg/kg, route oral; details: in vivo
[9] = AUC (0 to t) in Sprague-Dawley rat at 1 mg/kg, iv formulated using 5% DMA + 5% Tween-80 measured during 2 mins to 24 hrs post dose by LC/MS/MS method; format: ADME, organism-based; design: dose 1 mg/kg, time 0.033-24 hr, route intravenous; details: in vivo
[10] = AUC (0 to t) in Sprague-Dawley rat at 5 mg/kg, po formulated using 5% DMA + 5% Tween-80 measured during 2 mins to 24 hrs post dose by LC/MS/MS method; format: ADME, organism-based; design: time upper 24 hr, time lower 0.033 hr, dose 5 mg/kg, route oral; details: in vivo
[11] = AUC (0 to t) in Sprague-Dawley rat at 5 mg/kg, po formulated using 0.5% HPMC + 0.3% Tween-80 (pH = 2.8) measured during 2 mins to 24 hrs post dose by LC/MS/MS method; format: ADME, organism-based; design: time 0.033-24 hr, dose 5 mg/kg, route oral; details: in vivo
[12] = Apparent volume of distribution in Sprague-Dawley rat at 1 mg/kg, iv formulated using 5% DMA + 5% Tween-80 measured during 2 mins to 24 hrs post dose by LC/MS/MS method; format: ADME, organism-based; details: in vivo, read-out: Vz
[13] = system: Rattus norvegicus; experiment: Apparent volume of distribution in Sprague-Dawley rat at 5 mg/kg, po formulated using 5% DMA + 5% Tween-80 measured during 2 mins to 24 hrs post dose by LC/MS/MS method; format: ADME, organism-based; details: in vivo
[14] = system: Rattus norvegicus; experiment: Apparent volume of distribution in Sprague-Dawley rat at 5 mg/kg, po formulated using 0.5% HPMC + 0.3% Tween-80 (pH = 2.8) measured during 2 mins to 24 hrs post dose by LC/MS/MS method; format: ADME, organism-based; details: in vivo, pH 2.8, 5 mg/kg
[15] = Clearance in Sprague-Dawley rat at 1 mg/kg, iv formulated using 5% DMA + 5% Tween-80 measured during 2 mins to 24 hrs post dose by LC/MS/MS method; format: ADME, organism-based; details: in vivo
[16] = Clearance in Sprague-Dawley rat at 5 mg/kg, po formulated using 5% DMA + 5% Tween-80 measured during 2 mins to 24 hrs post dose by LC/MS/MS method; format: ADME, organism-based; details: in vivo
[17] = Clearance in Sprague-Dawley rat at 5 mg/kg, po formulated using 0.5% HPMC + 0.3% Tween-80 (pH = 2.8) measured during 2 mins to 24 hrs post dose by LC/MS/MS method; format: ADME, organism-based; details: in vivo
[18] = Mean residence time (0 to t) in Sprague-Dawley rat at 1 mg/kg, iv formulated using 5% DMA + 5% Tween-80 measured during 2 mins to 24 hrs post dose by LC/MS/MS method; format: ADME, organism-based; details: in vivo
[19] = Mean residence time (0 to t) in Sprague-Dawley rat at 5 mg/kg, po formulated using 5% DMA + 5% Tween-80 measured during 2 mins to 24 hrs post dose by LC/MS/MS method; format: ADME, organism-based; details: in vivo
[20] = Mean residence time (0 to t) in Sprague-Dawley rat at 5 mg/kg, po formulated using 0.5% HPMC + 0.3% Tween-80 (pH = 2.8) measured during 2 mins to 24 hrs post dose by LC/MS/MS method; format: ADME, organism-based; details: in vivo

Row | IC50 [1] [nM] | Structure (SMILES) | Ratio IC50 [2] | other results
1 | 0.5 | Cc1ccc(CN2CCOCC2)cc1NC(=O)c1ccc(Nc2ncc(C)c(-c3ccc(OC(F)(F)F)cc3)n2)c(F)c1 | 14 | 
2 | 0.71 | Cc1ccc(OCCN2CCOCC2)cc1NC(=O)c1ccc(Nc2ncc(C)c(-c3ccc(OC(F)(F)F)cc3)n2)c(F)c1 | > 8 | 
3 | 0.78 | Cc1ccc(CN(C)C)cc1NC(=O)c1ccc(Nc2ncc(C)c(-c3ccc(OC(F)(F)F)cc3)n2)c(F)c1 | > 8 | 
4 | 2.03 | Cc1ccc(CN2CCCC2)cc1NC(=O)c1ccc(Nc2ncc(C)c(-c3ccc(OC(F)(F)F)cc3)n2)c(F)c1 |  | 
5 | 1.02 | Cc1ccc(OCCCN2CCOCC2)cc1NC(=O)c1ccc(Nc2ncc(C)c(-c3ccc(OC(F)(F)F)cc3)n2)c(F)c1 |  | 
6 | 0.05 | Cc1ccc(CN2CCOCC2)cc1NC(=O)c1ccc(Nc2ncc(C)c(-c3ccccc3)n2)c(F)c1 | 150 | 
7 | 42.7 | Cc1ccc(CN2CCN(C)CC2)cc1NC(=O)c1ccc(Nc2ncc(F)c(-c3ccncc3)n2)c(F)c1 |  | 
8 | 0.94 | Cc1ccc(CN2CCCCC2)cc1NC(=O)c1ccc(Nc2ncc(C)c(-c3ccc(OC(F)(F)F)cc3)n2)c(F)c1 | > 8 | 
9 | 0.93 | Cc1ccc(CN2CCN(C)CC2)cc1NC(=O)c1ccc(Nc2ncc(C)c(-c3ccc(OC(F)(F)F)cc3)n2)c(F)c1 | > 8 | half-life [3]: 13.5 h; half-life [4]: 14.9 h; half-life [5]: 11.7 h; Cmax [6]: 225 ng/mL; Cmax [7]: 62.4 ng/mL; Cmax [8]: 57.1 ng/mL; AUC(0-t) [9]: 383 ng·h/mL; AUC(0-t) [10]: 956 ng·h/mL; AUC(0-t) [11]: 882 ng·h/mL; Vd [12]: 37.4 L/kg; Vz [13]: 71.6877 L/kg; Vz [14]: 69.4647 L/kg; clearance [15]: 32.2 mL/min/kg; CL/F [16]: 55.7 mL/min/kg; CL/F [17]: 68.7 mL/min/kg; MRT last [18]: 7.93 h; MRT last [19]: 10.7 h; MRT last [20]: 10.3 h
10 | 1.15 | Cc1ccc(CN2CCOCC2)cc1NC(=O)c1ccc(Nc2ncc(C)c(-c3ccccn3)n2)c(F)c1 |  | 
11 | 48.9 | Cc1ccc(CN2CCOCC2)cc1NC(=O)c1ccc(Nc2nccc(-c3cnn(C)c3)n2)c(F)c1 |  | 
12 | 0.9 | CCN(CC)Cc1ccc(C)c(NC(=O)c2ccc(Nc3ncc(C)c(-c4ccc(OC(F)(F)F)cc4)n3)c(F)c2)c1 | > 8 | 
13 | 7.2 | Cc1ccc(CN2CCN(C)CC2)cc1NC(=O)c1ccc(Nc2nccc(-c3cccnc3)n2)c(F)c1 |  | 
14 | 5.67 | Cc1ccc(CN2CCN(C)CC2)cc1NC(=O)c1ccc(Nc2ncc(F)c(-c3ccc(OC(F)(F)F)cc3)n2)c(F)c1 |  | 
15 | 7.2 | CS(=O)(=O)c1ccc(C(=O)Nc2ccc(Cl)c(-c3ccccn3)c2)c(Cl)c1 [VISMODEGIB] |  | 
